Test results taken from patent US12617769B2, “Chemical compound as thyroid hormone beta receptor agonist and use thereof” (SUNSHINE LAKE PHARMA CO., LTD., priority 2019, dated 2026).

What was measured:
TRα = target: T1, TRα (Homo sapiens, UniProt P10827); assay: In vitro binding activity, LanthaScreen TR-FRET Thyroid Receptor alfa Coactivator Assay; details: TRα-LBD
T1 construct: Then 5 μL of 4×TRα-LBD or TRP-LBD; purchased Invitrogen PV4687
Method: (§1) 2. Detection of TRα or TRβ Binding Activity In Vitro of the Compound of the Present Invention
(§2) • LanthaScreen TR-FRET Thyroid Receptor beta Coactivator Assay kit was purchased from Invitrogen, Cat. No. PV4686; • LanthaScreen TR-FRET Thyroid Receptor alfa Coactivator Assay kit was purchased from Invitrogen, Cat. No. PV4687. Test Method:
(§3) This method was tested using LanthaScreen TR-FRET Thyroid Receptor beta/alfa Coactivator Assay kit. The test compound was dissolved in DMSO and diluted three-fold to obtain a total of 10 concentrations, then the compounds were diluted into solutions containing 2% DMSO with TR-FRET Coregulator Buffer C in the kit. 10 μL of the compounds containing 2% DMSO were taken to a 384-well plate. Then 5 μL of 4×TRα-LBD or TRP-LBD and 5 μL of a mixture containing 0.4 μM fluorescein-SRC2-2 and 8 nM Tb anti-GST antibody were added to each well. After mixing well, the compounds were incubated at room temperature in the dark for 1 h. After 1 h, the fluorescence value (RFU) was read at 520 nm and 495 nm using PHERAstar FSX microplate reader from BMG LABTECH. The emission signal at 520 nm was divided by the emission signal at 495 nm to calculate the TR-FRET ratio.

TRβ = target: T2, TRβ (Homo sapiens, UniProt P10828); assay: In vitro binding activity, LanthaScreen TR-FRET Thyroid Receptor beta Coactivator Assay; details: TRβ-LBD
T2 construct: Then 5 μL of 4×TRα-LBD or TRP-LBD; purchased Invitrogen PV4686
T2 sequence (P10828 217-461 limits assumed): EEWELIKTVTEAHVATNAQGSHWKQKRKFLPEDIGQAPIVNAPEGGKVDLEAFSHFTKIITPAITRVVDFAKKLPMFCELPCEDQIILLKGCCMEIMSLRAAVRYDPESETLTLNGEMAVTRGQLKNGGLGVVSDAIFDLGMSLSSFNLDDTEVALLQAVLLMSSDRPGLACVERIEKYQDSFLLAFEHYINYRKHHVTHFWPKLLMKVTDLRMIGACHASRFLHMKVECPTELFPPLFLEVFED
Method: as §1, §2, §3

[1] = Pharmacokinetic determination in SD rats (plasma, LC/MS/MS); format: in vivo; details: SD rat; for pharmacokinetic properties (in words): intravenous injection or oral gavage, compared to control MGL3196; for AUC(0-t) / Cmax / Tmax / half-life: male, plasma
From the text: Test purpose: The following method is used to determine the pharmacokinetics of the compounds of the present invention.
Experimental reagents and test compounds: Propranolol (internal standard), methanol, ammonium acetate, K2EDTA (potassium ethylenediamine tetraacetate), formic acid, acetonitrile, MTBE (methyl tert-butyl ether), KolliphorHS15 (polyethylene glycol 12 hydroxystearate), DMSO (dimethyl sulfoxide) are commercially available; • SD rat: male, 180-220 g, 7-8 weeks old, purchased from Hunan Slake Experimental Animal Co., Ltd. Test Method: 1. Preparation of Test Compounds
Each test compound prepared was completely dissolved in a mixture of 5% DMSO+5% KolliphorHS 15+90% Saline according solubility property thereof.
(1) Preparation of the test compound stock solution: an appropriate amount of test compound was precisely weighed, dissolved in DMSO, diluted to 1 mg/mL with acetonitrile, and shaken well to obtain the test compound stock solution, which was stored at −20° C. for use.
(2) Preparation of internal standard solution: a certain amount of 1 mg/mL Propranolol stock solution was precisely drawn and diluted to 100 ng/mL with water.
The liquid-liquid extraction method was used to process the samples for chromatographic separation. On a triple quadrupole tandem mass spectrometer, quantitative analysis was performed using multiple reactive ion monitoring (MRM), and the concentration were calculated using instrument quantitative software.
30 μL of plasma sample was accurately drawn, and added with 250 μL of internal standard. The mixture was mixed well by vortexing. The mixture was extracted once with 1 mL of MTBE, centrifuged at 13,000 rpm, 4° C. for 2 min, then 800 μL of supernatant was sucked, and evaporated in a 96-well nitrogen blower. The residue was re-dissolved with 150 μL of methanol/water (v/v=50/50), mixed by vortexing, and injected. The injection volume was 8 μL.
An appropriate amount of compound stock solution was accurately drawn, and diluted with acetonitrile to obtain standard series solution. 20 μL of each of the above standard series solutions was accurately drawn, added with 180 μL of blank plasma, and mixed well by vortexing to prepare plasma samples equivalent to plasma concentrations of 3, 5, 10, 30, 100, 300, 1,000, 3,000, 5,000, and 10,000 ng/mL, which were all processed according to “pretreatment of plasma samples”. Two samples were analyzed for each concentration to establish a standard curve.
The content of the test compound in the plasma of rats after administration of different compounds was determined by LC/MS/MS method.
Pharmacokinetic parameters were calculated using a noncompartmental method by WinNonLin 6.1 software.

T1 sequence (P10827 163-410 isoform P10827-2 limits assumed, other chains not shown): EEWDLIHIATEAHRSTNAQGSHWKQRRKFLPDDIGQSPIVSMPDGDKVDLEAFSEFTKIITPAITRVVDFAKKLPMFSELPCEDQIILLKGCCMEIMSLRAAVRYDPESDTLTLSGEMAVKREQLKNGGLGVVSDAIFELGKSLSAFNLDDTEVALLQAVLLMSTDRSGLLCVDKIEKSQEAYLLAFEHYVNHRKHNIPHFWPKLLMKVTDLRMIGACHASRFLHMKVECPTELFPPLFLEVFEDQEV

SMILES | EC50 (TRα) | EC50 (TRβ) | pharmacokinetic properties (in words) [1] | AUC(0-t) ([1]; po, ig, 5 mg/kg) | Cmax ([1]; po, ig, 5 mg/kg) | Tmax ([1]; po, ig, 5 mg/kg) | half-life ([1]; po, ig, 5 mg/kg) | AUC(0-t) ([1]; iv, 1 mg/kg) | Cmax ([1]; iv, 1 mg/kg) | Tmax ([1]; iv, 1 mg/kg) | half-life ([1]; iv, 1 mg/kg)
O=c1cnn(-c2cc(Cl)c(Oc3ccc(=O)n(Cc4ccccc4)c3)c(Cl)c2)c(=O)[nH]1 [Example 29, 2-(4-((1-benzyl-6-oxo-1,6-dihydropyridin-3-yl)oxy)-3,5-dichlorophenyl)-1,2,4-triazine-3,5-dione] | 370 nM | 11 nM | excellent pharmacokinetic properties | 115000 ng·h/mL | 20000 ng/mL | 0.417 h | 2.89 h | 16900 ng·h/mL | 8920 ng/mL | 0.083 h | 2.38 h
COC(=O)c1nn(-c2cc(Cl)c(Oc3ccc(=O)n(Cc4ccccc4)c3)c(Cl)c2)c(=O)[nH]c1=O [Example 16, Methyl 2-(4-((1-benzyl-6-oxo-1,6-dihydropyridin-3-yl)oxy)-3,5-dichlorophenyl)-3,5-dioxo-2,3,4,5-tetrahydro-1,2,4-triazine-6-carboxylate] | 16300 nM | 360 nM | excellent pharmacokinetic properties | 33600 ng·h/mL | 12700 ng/mL | 0.5 h | 3.05 h | 17400 ng·h/mL | 17300 ng/mL | 0.083 h | 4 h
CC(C)c1cc(Oc2c(Cl)cc(-n3nc(C#N)c(=O)[nH]c3=O)cc2Cl)n[nH]c1=O [MGL3196, reference compound] | – | – | – | 20700 ng·h/mL | 2610 ng/mL | 2 h | 4.26 h | 8840 ng·h/mL | 5990 ng/mL | 0.083 h | 2.74 h
N#Cc1nn(-c2cc(Cl)c(Oc3ccc(=O)n(CCO)c3)c(Cl)c2)c(=O)[nH]c1=O [Example 32, 2-(3,5-dichloro-4-((1-(2-hydroxyethyl)-6-oxo-1,6-dihydropyridin-3-yl)oxy)phenyl)-3,5-dioxo-2,3,4,5-tetrahydro-1,2,4-triazine-6-carbonitrile] | 22700 nM | 1520 nM | – | – | – | – | – | – | – | – | –
Cc1cc(-n2nc(C#N)c(=O)[nH]c2=O)cc(C)c1Oc1ccc(=O)n(Cc2ccccc2)c1 [Example 34, 2-(4-((1-benzyl-6-oxo-1,6-dihydropyridin-3-yl)oxy)-3,5-dimethylphenyl)-3,5-dioxo-2,3,4,5-tetrahydro-1,2,4-triazine-6-carbonitrile] | 7310 nM | 367 nM | – | – | – | – | – | – | – | – | –
N#Cc1nn(-c2cc(Cl)c(Oc3ccc(=O)n(Cc4ccccc4)n3)c(Cl)c2)c(=O)[nH]c1=O [Example 2, 2-[4-(1-benzyl-6-oxo-1,6-dihydropyridazin-3-yl)oxy-3,5-dichlorophenyl]-3,5-dioxo-1,2,4-triazine-6-carbonitrile] | > 100000 nM | > 10000 nM | – | – | – | – | – | – | – | – | –
